Measurements taken from patent US20120010241A1, “HSP90 INHIBITING INDAZOLE DERIVATIVES, COMPOSITIONS CONTAINING SAME AND USE THEREOF” (SANOFI, priority 2009, published 2012).

Assays:
[1] = tested on: Her2 expression in SKBr3 cells; assay: phenotypic SKBr3/HER2 cell test (Her2 expression at the cell surface, flow cytometry); type: cell-based; settings: Homo sapiens, SK-BR-3, incubation for 24 h, anti-Her2 antibody coupled to PE, FACS
Procedure: The cellular activity of the compounds can in particular be evaluated by means of the phenotypic “SKBr3/HER2” cell test described below:
The SKBr3 […] adenocarcinoma cells, overexpressing the Her2 tyrosine kinase receptor, originate from the ATCC (HTB-30) and are cultured in McCoy's 5A medium supplemented with 10% FBS and 1% L-glutamine.
The cells are seeded in 12-well plates at a proportion of 125 000 cells per well in 1 ml of complete medium. The following day, the products are added at varying concentrations. After incubation for 24 h, the cells are trypsinized, washed with PBS and incubated with 100 ng of anti-Her2 antibody coupled to PE (phycoerythrin) (BD 340552) for 30 minutes at 4° C. in the dark. The fluorescence due to the expression of the Her2 receptor at the surface of the cells is then read using a FACS Calibur flow cytometer (Becton-Dickinson). The percentage inhibition of Her2 expression as a function of the concentrations of product tested is fitted by the nonlinear regression technique (XLfit, equation 205) in order to measure the IC50 for each product.

Hsp82 = Hsp82 (Saccharomyces cerevisiae, UniProt P02829); assay: Hsp82/ATPase test (PK/LDH coupled spectrophotometric method; malachite green method also described); type: biochemical; settings: 1 μM Hsp82, 250 μM ATP, 37° C., absorbance at 340 nm
Procedure: The biochemical activity of the compounds can in particular be evaluated by means of the “Hsp82/ATPase” test described below:
The inorganic phosphate released during the hydrolysis of ATP by the ATPase activity of Hsp82 is quantified by the malachite green method. In the presence of this reagent, formation of the inorganic phosphate-molybdate-malachite green complex, which absorbs at a wavelength of 620 nm, occurs.
The products to be evaluated are incubated in a reaction volume of 30 μl, in the presence of 1 μM Hsp82 and of 250 μM of substrate (ATP) in a buffer composed of 50 mM Hepes-NaOH (pH 7.5), 1 mM DTT, 5 mM MgCl2 and 50 mM KCl at 37° C. for 60 min. In parallel, an inorganic phosphate range of between 1 and 40 μM is made up in the same buffer. […] The inorganic phosphate concentration of each sample is then calculated from the standard curve. The ATPase activity of Hsp82 is expressed as concentration of inorganic phosphate produced in 60 minutes. The effect of the various products tested is expressed as percentage inhibition of the ATPase activity.
The formation of ADP due to the ATPase activity of Hsp82 was used to develop another method for evaluating the enzyme activity of this enzyme by application of an enzymatic coupling system involving pyruvate kinase (PK) and lactate dehydrogenase (LDH). In this kinetic-type spectrophotometric method, PK catalyses the formation of ATP and of pyruvate from phosphoenol pyruvate (PEP) and the ADP produced by Hsp82. The pyruvate formed, which is a substrate for LDH, is subsequently converted to lactate in the presence of NADH. In this case, the decrease in the NADH concentration, measured through the decrease in absorbance at the wavelength of 340 nm, is proportional to the concentration of ADP produced by Hsp82.
The products tested are incubated in a reaction volume of 100 μl of buffer composed of 100 mM Hepes-NaOH (pH 7.5), 5 mM MgCl2, 1 mM DTT, 150 mM KCl, 0.3 mM NADH, 2.5 mM PEP and 250 μM ATP. This mixture is preincubated at 37° C. for 30 minutes before the addition of 3.77 units of LDH and 3.77 units of PK. The reaction is initiated by addition of the product to be evaluated, in varying concentrations, and of Hsp82, at the concentration of 1 μM. The enzymatic activity of Hsp82 is then measured continuously, in a microplate reader, at 37° C., at the wavelength of 340 nm. The initial rate of the reaction is obtained by measuring the slope of the tangent to the origin of the curve recorded. The enzymatic activity is expressed in μM of ADP formed per minute. The effect of the various products tested is expressed as 50% inhibitory concentration (1050) with respect to the ATPase activity, according to the codification below: […]

Sequence of Hsp82 (P02829 whole entry): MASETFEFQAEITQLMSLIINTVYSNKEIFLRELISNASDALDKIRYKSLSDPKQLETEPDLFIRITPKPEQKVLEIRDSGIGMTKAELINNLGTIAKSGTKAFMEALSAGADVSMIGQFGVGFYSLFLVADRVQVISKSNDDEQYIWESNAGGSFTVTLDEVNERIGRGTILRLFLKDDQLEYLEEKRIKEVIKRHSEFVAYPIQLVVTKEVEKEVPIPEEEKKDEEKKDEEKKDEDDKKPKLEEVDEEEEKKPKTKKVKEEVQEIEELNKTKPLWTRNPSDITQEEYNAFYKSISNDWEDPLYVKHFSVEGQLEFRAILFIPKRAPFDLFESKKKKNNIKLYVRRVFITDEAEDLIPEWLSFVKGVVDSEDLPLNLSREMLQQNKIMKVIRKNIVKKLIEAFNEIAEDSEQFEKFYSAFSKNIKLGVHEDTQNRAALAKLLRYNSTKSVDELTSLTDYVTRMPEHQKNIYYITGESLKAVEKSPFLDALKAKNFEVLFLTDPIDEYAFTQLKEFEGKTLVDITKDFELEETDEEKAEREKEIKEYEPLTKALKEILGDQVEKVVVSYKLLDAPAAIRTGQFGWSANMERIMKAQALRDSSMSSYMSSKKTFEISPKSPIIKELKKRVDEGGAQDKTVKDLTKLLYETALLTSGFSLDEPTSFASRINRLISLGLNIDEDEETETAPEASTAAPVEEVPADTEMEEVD

**Q.** Which IC50 [1] does the source give for `Cc1nn(-c2cnc(C(N)=O)c(NCC(C)(C)O)c2)c2cccc(-c3cnc4ccccc4c3)c12` [Example 9, 3-(2-hydroxy-2-methylpropylamino)-5-(3-methyl-4-quinolin-3-ylindazol-1-yl)pyridine-2-carboxamide] here?
**A.** < 1000 nM

**Q.** With `NC(=O)c1ccc(-n2ncc3c(-c4cnc5ccccc5c4)cccc32)cc1` [Example 25, 4-(4-quinolin-3-ylindazol-1-yl)benzamide] as the compound, how does the IC50 [1] read?
**A.** 10000 to 100000 nM

**Q.** How did the IC50 [1] turn out when `Cc1nn(-c2ccc(C(N)=O)c(NC[C@@H]3C[C@@H]4CC[C@H]3O4)c2)c2cccc(-c3cnc4ccccc4c3)c12` (single isomer, unassigned) [Example 20, 4-(3-methyl-4-quinolin-3-ylindazol-1-yl)-2-{[endo-1-(7-oxabicyclo[2.2.1]hept-2-yl)methyl]amino}benzamide] was run?
**A.** < 1000 nM

**Q.** For `NC(=O)c1ccc(-n2ncc3c(-c4cnc5ccccc5c4)cccc32)cc1N[C@H]1CC[C@H](O)CC1` [Example 24, 2-(trans-4-hydroxycyclohexylamino)-4-(4-quinolin-3-ylindazol-1-yl)benzamide], which IC50 [1] is on record?
**A.** < 1000 nM

**Q.** What does the source list for `Cc1nn(-c2ccc(C(N)=O)c(NCCCO)c2)c2cccc(-c3cnc4ccccc4c3)c12` [Example 3, 2-(3-hydroxypropylamino)-4-(3-methyl-4-quinolin-3-ylindazol-1-yl)benzamide]?
**A.** IC50 [1]: < 1000 nM; IC50 (Hsp82): < 1000 nM

**Q.** With `Cc1nn(-c2ccc(C(N)=O)c(N[C@H]3CC[C@H](OC(=O)CN)CC3)c2)c2cccc(-c3cnc4ccccc4c3)c12` [Example 11, aminoacetic acid trans-4-[2-carbamoyl-5-(3-methyl-4-quinolin-3-ylindazol-1-yl)phenylamino]cyclohexyl ester] as the compound, how does the IC50 [1] read?
**A.** < 1000 nM

**Q.** And the IC50 (Hsp82)?
**A.** < 1000 nM

**Q.** Which IC50 [1] does the source give for `Cc1nn(-c2ccc(C(N)=O)c(NC3CCOCC3)c2)c2cccc(-c3cnc4ccccc4c3)c12` [Example 7, 4-(3-methyl-4-quinolin-3-ylindazol-1-yl)-2-(tetrahydropyran-4-ylamino)benzamide] here?
**A.** < 1000 nM

**Q.** And the IC50 (Hsp82)?
**A.** < 1000 nM

**Q.** Which IC50 [1] does the source give for `NC(=O)c1ccc(-n2nc(C(F)(F)F)c3c(-c4cnc5ccccc5c4)cccc32)cc1N[C@H]1CC[C@H](O)CC1` [Example 21, 2-(trans-4-hydroxycyclohexylamino)-4-(4-quinolin-3-trifluoromethylindazol-1-yl)benzamide] here?
**A.** < 1000 nM

**Q.** What does the source list for `Cc1nn(-c2ccc(C(N)=O)c(NCC(C)(C)O)c2)c2cccc(-c3cnc4ccccc4c3)c12` [Example 5, 2-(2-hydroxy-2-methylpropylamino)-4-(3-methyl-4-quinolin-3-ylindazol-1-yl)benzamide]?
**A.** IC50 [1]: < 1000 nM; IC50 (Hsp82): < 1000 nM

**Q.** `Cc1nn(-c2ccc(C(N)=O)c(NCCF)c2)c2cccc(-c3cnc4ccccc4c3)c12` [Example 8, 2-(2-fluoroethylamino)-4-(3-methyl-4-quinolin-3-ylindazol-1-yl)benzamide] was tested. Which IC50 [1] did it give?
**A.** < 1000 nM

**Q.** `NC(=O)c1ncc(-n2nc(C(F)(F)F)c3c(-c4cnc5ccccc5c4)cccc32)cc1N[C@H]1CC[C@H](O)CC1` [Example 23, 3-(trans-4-hydroxycyclohexylamino)-5-(4-quinolin-3-yl-3-trifluoromethylindazol-1-yl)pyridine-2-carboxamide] was tested. Which IC50 [1] did it give?
**A.** < 1000 nM

**Q.** Which IC50 [1] does the source give for `Cc1nn(-c2cnc(C(N)=O)c(NC3CCOCC3)c2)c2cccc(-c3cnc4ccccc4c3)c12` [Example 10, 5-(3-methyl-4-quinolin-3-ylindazol-1-yl)-3-(tetrahydro-pyran-4-ylamino)pyridine-2-carboxamide] here?
**A.** < 1000 nM

**Q.** What about the IC50 (Hsp82) of the same compound?
**A.** < 1000 nM

**Q.** How did the IC50 [1] turn out when `Cc1nn(-c2ccc(C(N)=O)cc2)c2cccc(-c3cnc4ccccc4c3)c12` [Example 2, 4-(3-methyl-4-quinolin-3-ylindazol-1-yl)benzamide] was run?
**A.** 10000 to 100000 nM

**Q.** What about the IC50 (Hsp82) of the same compound?
**A.** 1000 to 10000 nM

**Q.** For `Cc1nn(-c2ccc(C(N)=O)c(NC[C@H]3C[C@@H]4CC[C@H]3O4)c2)c2cccc(-c3cnc4ccccc4c3)c12` (single isomer, unassigned) [Example 19, 4-(3-methyl-4-quinolin-3-ylindazol-1-yl)-2-{[exo-1-(7-oxabicyclo[2.2.1]hept-2-yl)methyl]amino}benzamide], which IC50 [1] is on record?
**A.** < 1000 nM

**Q.** `NC(=O)c1ncc(-n2nc(Cl)c3c(-c4cnc5ccccc5c4)cccc32)cc1N[C@H]1CC[C@H](O)CC1` [Example 26, 5-(3-chloro-4-quinolin-3-ylindazol-1-yl)-3-(trans-4-hydroxycyclohexylamino)pyridine-2-carboxamide] was tested. Which IC50 [1] did it give?
**A.** < 1000 nM

**Q.** How did the IC50 [1] turn out when `Cc1nn(-c2ccc(C(N)=O)c(N[C@H]3CC[C@H](O)CC3)c2)c2cccc(-c3cnc4ccccc4c3)c12` [Example 1, 2-(trans-4-hydroxycyclohexylamino)-4-(3-methyl-4-quinolin-3-ylindazol-1-yl)benzamide] was run?
**A.** < 1000 nM

**Q.** What about the IC50 (Hsp82) of the same compound?
**A.** < 1000 nM

**Q.** Which IC50 [1] does the source give for `Cc1nn(-c2ccc(C(N)=O)c(NCCC3(O)CCN(C)CC3)c2)c2cccc(-c3cnc4ccccc4c3)c12` [Example 4, 2-[2-(4-hydroxy-1-methylpiperidin-4-yl)ethylamino]-4-(3-methyl-4-quinolin-3-ylindazol-1-yl)benzamide] here?
**A.** < 1000 nM

**Q.** How did the IC50 [1] turn out when `Cc1nn(-c2ccc(C(N)=O)c(NC3CC(C)(C)N(C)C(C)(C)C3)c2)c2cccc(-c3cnc4ccccc4c3)c12` [Example 15, 4-(3-methyl-4-quinolin-3-ylindazol-1-yl)-2-(1,2,2,6,6-pentamethylpiperidin-4-ylamino)benzamide] was run?
**A.** < 1000 nM

**Q.** What about the IC50 (Hsp82) of the same compound?
**A.** 1000 to 10000 nM

**Q.** Which results are given for `Cc1nn(-c2ccc(C(N)=O)c(N[C@H]3CC[C@H](O)CC3)c2)c2cccc(-c3nc4ccc(F)cc4[nH]3)c12` [Example 12, 4-[4-(6-fluoro-1H-benzimidazol-2-yl)-3-methylindazol-1-yl]-2-(trans-4-hydroxycyclohexylamino)benzamide]?
**A.** IC50 [1]: < 1000 nM; IC50 (Hsp82): < 1000 nM

**Q.** Which IC50 [1] does the source give for `Cc1nn(-c2cnc(C(N)=O)c(NC3CC(C)(C)N(C)C(C)(C)C3)c2)c2cccc(-c3cnc4ccccc4c3)c12` [Example 17] here?
**A.** < 1000 nM

**Q.** How did the IC50 [1] turn out when `NC(=O)c1ccc(-n2nc(C(F)(F)F)c3c(-c4nc5ccc(F)cc5[nH]4)cccc32)cc1N[C@H]1CC[C@H](O)CC1` [Example 22, 4-[4-(6-fluoro-1H-benzimidazol-2-yl)-3-trifluoromethylindazol-1-yl]-2-(trans-4-hydroxycyclohexylamino)benzamide] was run?
**A.** 1000 to 10000 nM

**Q.** For `Cc1nn(-c2ccc(C(N)=O)c(NCC(C)(C)O)c2)c2cccc(-c3nc4ccc(F)cc4[nH]3)c12` [Example 13, 4-[4-(6-fluoro-1H-benzimidazol-2-yl)-3-methylindazol-1-yl]-2-(2-hydroxy-2-methylpropylamino)benzamide], which IC50 [1] is on record?
**A.** < 1000 nM

**Q.** What does the source list for `Cc1nn(-c2ccc(C(N)=O)c(NC3CC(C)(C)NC(C)(C)C3)c2)c2cccc(-c3cnc4ccccc4c3)c12` [Example 6, 4-(3-methyl-4-quinolin-3-ylindazol-1-yl)-2-(2,2,6,6-tetramethylpiperidin-4-ylamino)benzamide]?
**A.** IC50 [1]: < 1000 nM; IC50 (Hsp82): < 1000 nM

**Q.** `CC(C)(O)CNc1cc(-n2nc(Br)c3c(-c4cnc5ccccc5c4)cccc32)cnc1C(N)=O` [Example 27, 5-(3-bromo-4-quinolin-3-ylindazol-1-yl)-3-(2-hydroxy-2-methylpropylamino)pyridine-2-carboxamide] was tested. Which IC50 [1] did it give?
**A.** < 1000 nM

**Q.** With `Cc1nn(-c2cnc(C(N)=O)c(N[C@H]3CC[C@H](O)CC3)c2)c2cccc(-c3cnc4ccccc4c3)c12` [Example 16, 3-(trans-4-hydroxycyclohexylamino)-5-(3-methyl-4-quinolin-3-ylindazol-1-yl)pyridine-2-carboxamide] as the compound, how does the IC50 [1] read?
**A.** < 1000 nM
